# According to US6479435B1, “Diaryl ethers and processes for their preparation and herbicidal and desiccant compositions containing them” (ISK Americas Incorporated, priority 1997, dated 2002):
# How the values were obtained:
# Format in all cases: in vivo
# [1] = test system: upland rice (Oryza sp., var.Tebonnet, RICE); assay: Pre-emerge greenhouse test, crop damage rating; conditions: 14 days after application, rating scale 0-100
# Method in brief: (§1)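 Seeds sown in sandy loam one day before track-sprayer application of acetone solutions at 125–1000 g ai/ha (187 l/ha), then surface-watered to incorporate and bottom-watered. Injury scored visually at 14 days on a 0–100 scale (0 no damage, 100 complete death).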
# [2] = test system: field corn (Zea mays L., var. Dekalb 535, CORN); assay: Pre-emerge greenhouse test, crop damage rating; conditions: 14 days after application, rating scale 0-100
# Method in brief: as §1
# [3] = test system: soybean (Glycine max L., var. Pella 86, SOY); assay: Pre-emerge greenhouse test, crop damage rating; conditions: 14 days after application, rating scale 0-100
# Method in brief: as §1
# [4] = test system: green foxtail (Setaria viridis, SETVI); assay: Pre-emerge greenhouse herbicide test, phytotoxicity rating; conditions: 14 days after application, rating scale 0-100
# Method in brief: as §1
# [5] = test system: lambsquarters (Chenopodium album, CHEAL); assay: as above; conditions: 14 days after application, rating scale 0-100
# Method in brief: as §1
# [6] = test system: redroot pigweed (Amaranthus retroflexus, AMARE); assay: as above; conditions: 500 g ai/ha, 14 days after application, rating scale 0-100
# Method in brief: as §1
# [7] = test system: sicklepod (Cassia obtusifolia, CASOB); assay: as above; conditions: 14 days after application, rating scale 0-100
# Method in brief: as §1
# [8] = test system: velvetleaf (Abutilon theophrasti, ABUTH); assay: as above; conditions: 14 days after application, rating scale 0-100
# Method in brief: as §1
# [9] = test system: large crabgrass (Digitaria sanguinalis, DIGSA); assay: as above; conditions: 14 days after application, rating scale 0-100
# Method in brief: as §1
# [10] = test system: barnyardgrass (Echinochloa crusgalli, ECHCG); assay: as above; conditions: 14 days after application, rating scale 0-100
# Method in brief: as §1
# [11] = test system: ivyleaf morningglory (Ipomoea hederacea, IPOHE); assay: as above; conditions: 14 days after application, rating scale 0-100
# Method in brief: as §1
# [12] = test system: Johnsongrass (Sorghum halepense, SORHA); assay: as above; conditions: 14 days after application, rating scale 0-100
# Method in brief: as §1
# [13] = test system: common ragweed (Ambrosia artemisiifolia L., AMBEL); assay: as above; conditions: 14 days after application, rating scale 0-100
# Method in brief: as §1
# [14] = test system: common ragweed (Ambrosia artemisiifolia L., AMBEL); assay: Post-emerge greenhouse herbicide test, phytotoxicity rating; conditions: 14 days after application
# Method in brief: (§2)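 Plants at the 2-3 leaf stage, sown 8-21 days earlier, were track-sprayed post-emergence with compound in acetone plus 0.25% v/v non-ionic surfactant at 63-1000 g ai/ha (187 l/ha). Damage was rated at 14 days on a 0-100 scale (0 none, 100 all plants dead), for both crop injury and weed control.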
# [15] = test system: green foxtail (Setaria viridis, SETVI); assay: as above; conditions: 14 days after application
# Method in brief: as §2
# [16] = test system: lambsquarters (Chenopodium album, CHEAL); assay: as above; conditions: 14 days after application
# Method in brief: as §2
# [17] = test system: redroot pigweed (Amaranthus retroflexus, AMARE); assay: as above; conditions: 14 days after application
# Method in brief: as §2
# [18] = test system: velvetleaf (Abutilon theophrasti, ABUTH); assay: as above; conditions: 14 days after application
# Method in brief: as §2
# [19] = test system: large crabgrass (Digitaria sanguinalis, DIGSA); assay: as above; conditions: 14 days after application
# Method in brief: as §2
# [20] = test system: barnyardgrass (Echinochloa crusgalli, ECHCG); assay: as above; conditions: 14 days after application
# Method in brief: as §2
# [21] = test system: ivyleaf morningglory (Ipomoea hederacea, IPOHE); assay: as above; conditions: 14 days after application
# Method in brief: as §2
# [22] = test system: Johnsongrass (Sorghum halepense, SORHA); assay: as above; conditions: 14 days after application
# Method in brief: as §2
# [23] = test system: upland rice (Oryza sp., var.Tebonnet, RICE); assay: Post-emerge greenhouse test, crop damage rating; conditions: 14 days after application
# Method in brief: as §2
# [24] = test system: field corn (Zea mays L., var. Dekalb 535, CORN); assay: Post-emerge greenhouse test, crop damage rating; conditions: 14 days after application
# Method in brief: as §2
# [25] = test system: soybean (Glycine max L., var. Pella 86, SOY); assay: Post-emerge greenhouse test, crop damage rating; conditions: 14 days after application
# Method in brief: as §2
smiles,measurement,setting,value
O=c1n(CCCF)nnn1-c1cc(Oc2ncccc2C(F)(F)F)c(Cl)cc1Cl [Compound 6-7],crop damage rating RICE,[1]; 125 g ai/ha,0
same,crop damage rating RICE,[1]; 500 g ai/ha,40
same,crop damage rating CORN,[2]; 125 g ai/ha,0
same,crop damage rating CORN,[2]; 500 g ai/ha,30
same,crop damage rating SOY,[3]; 125 g ai/ha,80
same,crop damage rating SOY,[3]; 500 g ai/ha,90
same,phytotoxicity rating SETVI,[4]; 125 g ai/ha,80
same,phytotoxicity rating SETVI,[4]; 500 g ai/ha,100
same,phytotoxicity rating CHEAL,[5]; 125 g ai/ha,80
same,phytotoxicity rating CHEAL,[5]; 500 g ai/ha,90
same,phytotoxicity rating AMARE,[6],100
same,phytotoxicity rating CASOB,[7]; 125 g ai/ha,0
same,phytotoxicity rating CASOB,[7]; 500 g ai/ha,60
same,phytotoxicity rating ABUTH,[8]; 125 g ai/ha,0
same,phytotoxicity rating ABUTH,[8]; 500 g ai/ha,20
same,phytotoxicity rating DIGSA,[9]; 125 g ai/ha,40
same,phytotoxicity rating DIGSA,[9]; 500 g ai/ha,70
same,phytotoxicity rating ECHCG,[10]; 125 g ai/ha,0
same,phytotoxicity rating ECHCG,[10]; 500 g ai/ha,50
same,phytotoxicity rating IPOHE,[11]; 125 g ai/ha,0
same,phytotoxicity rating IPOHE,[11]; 500 g ai/ha,30
same,phytotoxicity rating SORHA,[12]; 125 g ai/ha,20
same,phytotoxicity rating SORHA,[12]; 500 g ai/ha,40
same,phytotoxicity rating AMBEL,[13]; 125 g ai/ha,30
same,phytotoxicity rating AMBEL,[13]; 500 g ai/ha,0
same,AMBEL phytotoxicity rating (0-100),[14]; 63 g al/ha,0
same,AMBEL phytotoxicity rating (0-100),[14]; 500 g al/ha,30
same,SETVI phytotoxicity rating (0-100),[15]; 63 g al/ha,20
same,SETVI phytotoxicity rating (0-100),[15]; 500 g al/ha,30
same,CHEAL phytotoxicity rating (0-100),[16]; 63 g al/ha,50
same,CHEAL phytotoxicity rating (0-100),[16]; 500 g al/ha,80
same,AMARE phytotoxicity rating (0-100),[17]; 63 g al/ha,70
same,AMARE phytotoxicity rating (0-100),[17]; 500 g al/ha,80
same,ABUTH phytotoxicity rating (0-100),[18]; 63 g al/ha,0
same,ABUTH phytotoxicity rating (0-100),[18]; 500 g al/ha,70
same,DIGSA phytotoxicity rating (0-100),[19]; 63 g al/ha,0
same,DIGSA phytotoxicity rating (0-100),[19]; 500 g al/ha,10
same,ECHCG phytotoxicity rating (0-100),[20]; 63 g al/ha,0
same,ECHCG phytotoxicity rating (0-100),[20]; 500 g al/ha,50
same,IPOHE phytotoxicity rating (0-100),[21]; 63 g al/ha,0
same,IPOHE phytotoxicity rating (0-100),[21]; 500 g al/ha,50
same,SORHA phytotoxicity rating (0-100),[22]; 63 g al/ha,0
same,SORHA phytotoxicity rating (0-100),[22]; 500 g al/ha,30
same,RICE crop damage rating (0-100),[23]; 63 g al/ha,0
same,RICE crop damage rating (0-100),[23]; 500 g al/ha,50
same,CORN crop damage rating (0-100),[24]; 63 g al/ha,0
same,CORN crop damage rating (0-100),[24]; 500 g al/ha,10
same,SOY crop damage rating (0-100),[25]; 63 g al/ha,0
same,SOY crop damage rating (0-100),[25]; 500 g al/ha,30
